In paper PMC6127092, “Polymeric nanocapsules embedded with ultra-small silver nanoclusters for synergistic pharmacology and improved oral delivery of Docetaxel” (Scientific Reports, 2018):

What was measured:
[1] = In vitro DTX release and release model fitting; assay type: physicochemical
Description: Error bar represents Mean ± S.D. of three experiments.
To further probe into the release mechanism, different mathematical models were applied to the dissolution data.

[2] = Biocompatibility, trypan blue assay; assay type: cell-based; settings: fresh human macrophages isolated from blood
Procedure: The biocompatibility of the NCs and DTX-Ag-NCPs was assessed against the fresh human macrophages. The macrophages were isolated from fresh human blood using Ficoll-Gastrografin gradient method.^6 Macrophages were suspended in RPMI media and incubated in CO2 incubator.

[3] = Oral bioavailability and pharmacokinetics; assay type: in vivo, rabbits; settings: rabbit
Procedure: All the animal studies were conducted in compliance to the approved protocol of Bio-Ethical Committee of Quaid-i-Azam University Islamabad, Pakistan (Protocol No. BEC-FBS-QAU-20). Oral bioavailability studies of NCs were conducted in rabbits. The rabbits were divided into 3 groups (n=5) and kept in the animal house with free access to food and water. […] The samples (10mg/kg) were orally administered through gavage needle. Blood samples were withdrawn from ear marginal vein of each rabbit at predefined time interval using 1 ml sterile syringe each time. The plasma was separated from blood samples and stored at -20 °C till further used for analysis.^7,8 The drug was extracted from plasma samples and was analyzed using HPLC method described earlier.

Swiss albino mice [4] = settings: mouse, in vivo
Procedure: After 14 days, the complete blood count (CBC) was performed on blood and plasma was carefully collected and LFTs, RFTs, glucose, total protein and cholesterol were analyzed.

Swiss albino mice [5] = settings: mouse, in vivo, po, 10 mg/kg
Procedure: (§1) Female Swiss albino mice weighing 32 ± 5 g, were divided into 4 groups (n = 5) and were kept to free access of food and water at controlled environment. […] The dose (10 mg/kg) was administered orally through gavage. […] After 14 days, the blood was withdrawn for serum biochemistry analysis and mice were sacrificed for tissue histology studies[49].

[6] = rabbit, in vivo, cited from earlier work
[7] = system: breast cancer (MDA-MB-231) cell line; test: Cytotoxic synergism study, MTT assay; settings: MDA-MB-231, MTT, 24 h
Procedure: The cells were seeded in 96-well plate having 6000 cells/well in fetal bovine serum supplemented Dulbecco’s Modified Eagles Medium (DMEM/FBS) solution. […] Untreated cells with 100% viability were taken as control and the cells without addition of MTT were used as blank to calibrate the instrument. IC50 values for each formulation was calculated using Graphpad Prism 6.02 software[19].

Swiss albino mice [8] = test: Acute oral toxicity (OECD 425), observation; settings: 10 mg/kg, 14 days
Procedure: as §1

[9] = model fitted to dissolution data

For `CC(=O)O[C@@]12CO[C@@H]1C[C@H](O)[C@@]1(C)C(=O)[C@H](O)C3=C(C)[C@@H](OC(=O)[C@H](O)[C@@H](NC(=O)OC(C)(C)C)c4ccccc4)C[C@@](O)([C@@H](OC(=O)c4ccccc4)[C@H]21)C3(C)C` [DTX, Docetaxel], the “Cumulative DTX release” value ([1]; 24 h, phosphate buffer, 37 °C) was “about 53%”, the “Higuchi KH” value [1, 9] was 10.98 and the “Hixon-Crowell KHC” value [1, 9] was 0.01. The “Korsmeyer-Peppas N (release exponent)” value [1, 9] was 0.56, the “Zero Order Ko” value [1, 9] was 3.06 and the viability at 24 h, 50 µg/ml [2] was ~65%. It also gave a Cmax ([3]; plasma, 10 mg/kg) of 41.8 ng/mL, a Tmax ([3]; plasma, 10 mg/kg) of 5 h and an AUC(0-t) ([3]; plasma, 10 mg/kg, read-out: AUC0–24) of 441 ng·h/mL. For the same compound, the MRT inf ([3]; plasma, 10 mg/kg, read-out: MRT0-inf_obs) was 26.2 h, the AUMC0-inf_obs ([3]; 10 mg/kg) was 19100.51 ng/ml*h^2 and the Cl/F_obs ([3]; 10 mg/kg) was 0.014 (mg)/(ng/ml)/h. The t1/2 ([3]; 10 mg/kg, plasma) was 18.039 h, the “Time plasma level remained above minimum effective concentration / within therapeutic window” value ([3]; MEC 35 ng/mL) was 3 h and the half-life ([3]; plasma, po, 10 mg/kg) was 18 h. For the same compound, the F ([3]; relative to DTX control) was 1, the Hb (Swiss albino mice [4]) was 13.20 ± 6.37 and the MCH (Swiss albino mice [4]) was 15.54 ± 4.35. For the same compound, the MCV (Swiss albino mice [4]) was 57.57 ± 5.52, the MPV (Swiss albino mice [4]) was 7.11 ± 4.91 and the PCV (Swiss albino mice [4]) was 54.37 ± 11.93. The Platelets (Swiss albino mice [4]) was 632 ± 87.57, the RBC (Swiss albino mice [4]) was 6.86 ± 4.91 and the RDW % (Swiss albino mice [4]) was 16.92 ± 6.63%. The “Serum glutamic pyruvic transaminase (SGPT)” value (Swiss albino mice [4]) was “highest level”, the WBC (Swiss albino mice [4]) was 12.45 ± 7.63 and the “Visible changes in skin, fur or behavioral pattern” value (Swiss albino mice [5]) was “no visible changes”. The Minimum toxic concentration ([6]; iv) was 2700 ng/mL, the Minimum effective concentration [6] was 35 ng/mL and the IC50 [7] was 14.32 µg/mL. The “Mortality and change in body weights” value (Swiss albino mice [8]) was “No mortality and significant change in body weights”.
